Laboratory results from PMC10423278, “Delivered complementation in planta (DCIP) enables measurement of peptide-mediated protein delivery efficiency in plants” (Communications Biology, 2023).
No end group written: not given here.

Experiments:
[1] = R9-GFP11 dot blot assay (anti-GFP11) of leaf lysates, tissue stability; assay type: in vivo, Nicotiana benthamiana; conditions: 500 μM in water infiltrated, in situ, 0, 4, 8, 24 h; 12 mm disc lysed in RIPA, dot blot anti-GFP11, N = 6
Experimental: We infiltrated leaves with 500 μM R9-GFP11 and left the plants to incubate in situ. A higher concentration of R9-GFP11 was chosen to facilitate detection by immunoblotting. After 0, 4, 8, and 24 h of incubation, a single 12 mm leaf disc was harvested and lysed for each treatment. Two microliters of lysates were then spotted onto nitrocellulose for dot blot analysis[42] using a primary antibody raised against GFP11. […] The reduction at 24 h in the sfGFP signal is indicative of the combined intracellular and extracellular turnover of GFP11 becoming higher than the rate of delivery and complementation. […] We hypothesize that similar dynamics from apoplastic proteases[45] and intracellular degradation are at play in plants.
The third or fourth leaf of 4–5-week-old wild-type N. benthamiana was infiltrated with 500 μM R9-GFP11 in water using a needless syringe. Infiltrations were staggered such that all treatments could be harvested simultaneously for 0, 4, 8, and 24 h time points. Each treatment was performed on a separate plant and the experiment was repeated thrice. A 12 mm leaf disc was excised for each treatment using a leaf punch and flash frozen in liquid nitrogen before grinding and lysis in 20 μL RIPA buffer with 1x plant protease inhibitor cocktail (Sigma-Aldrich: P9599). The lysates were then clarified by centrifugation at 21,000 × g for 30 min. […]

[2] = test system: DCIP-expressing leaves (intact); assay: DCIP in attached, intact leaves incubated in situ; assay type: cell-based, Nicotiana benthamiana
Experimental: We next confirmed that DCIP is capable of detecting successful delivery in attached, intact leaves instead of leaf discs. DCIP-expressing leaves were thus infiltrated with 100 μM R9-GFP11 solutions and allowed to incubate in situ. During this time, the infiltrated liquid would dry, rendering the effective treatment concentration difficult to compare to the above leaf disc assays. We then assessed the amount of sfGFP complementation at 4 or 24 h post infiltration with 100 μM R9-GFP11 (Fig. 4a). […] We also tested whether or not 24 h-treated cells were still competent to R9-mediated delivery; we retreated a previously 24H treated leaf with 100 μM R9-GFP11, and imaged 4 h post re-treatment. […] The limited fluorescence recovery with re-treatment could be due to an induced stress response that decreases the cell wall permeability.
Three days after agroinfiltration, DCIP-expressing leaves were infiltrated with the treatment solutions. Unless otherwise stated, an 8 mm punch was then excised from the infiltrated area and plated, abaxial side up, onto ½ MS pH 5.7 agar plates. The plates were then left to incubate under ambient conditions for 4–5 h before imaging. For cold temperature treatment, after infiltration with ice-cold solutions of R9-GFP11 and disc excision, the leaf discs were plated onto ice-cold agar and immediately transferred to a 4 °C refrigerator for incubation. After incubation, the agar plates with leaf discs were kept on ice until the moment of imaging. For in situ incubation, leaves were simply infiltrated and the plant was returned to the growing chamber for incubation. […]
Excised leaf discs were imaged on a Zeiss LSM880 laser scanning confocal microscope. Images for semi-quantitative analysis were collected using a ×20/1.0NA Plan-apochromat water immersion objective and larger field-of-views were collected using a ×5 objective. […] For quantification experiments, z-stacks were acquired with the imaging depth set to capture the epidermal layer down to the point where mCherry nuclei could no longer be detected. z-stacks from four fields of view were acquired for every treatment condition. Quantitative image analysis and downstream processing was performed using Cell Profiler 3.0. […] Cell Profiler was then used to quantify the number, mCherry intensity, GFP intensity, and red (mCherry)/green (sfGFP) ratio of the projected nuclei.
Data obtained from Cell Profiler was processed using a script written in Python 3.9. Using the Cell Profiler data, GFP positive nuclei were counted using a Python script by setting a threshold defined as a one-tailed 99% confidence interval above the mean green/red ratio in the untreated control or water infiltration control of each experiment. […]

Sequence: RRRRRRRRRGSGSRDHMVLHEYVNAAGIT [R9-GFP11]
- time until recovered/tissue-localized peptide returns to level of non-treated control (clearance from leaf tissue) [1]: ≤ 24 h
- time to disappearance of GFP complementation (DCIP) signal ([2]; 100 μM, intact leaves in situ): ≤ 24 h
- percentage of sfGFP positive cells, 4 h post infiltration ([2]; 100 μM, intact leaves in situ, N = 5): relatively high percentage of sfGFP positive cells
- percentage of sfGFP-positive cells, 24 h post infiltration ([2]; 100 μM, intact leaves in situ, N = 5, not statistically different from non-treated control): returned nearly to baseline
- delivery after re-treatment of a 24 h treated leaf ([2]; re-treated with 100 μM, imaged 4 h post re-treatment): some instances of successful delivery
